Test system: antibody R674
Assay: Radioimmune assay: displacement of 3H-Compound A' or 3H-Compound B' from antibody R674
Assay type: binding, rabbit
Conditions: up to 10 μM (the highest concentration tested)
Procedure: Non-antibody-bound radioactive isotope was removed from the reaction mixture by its absorption onto dextran-coated activated charcoal. […] The activated charcoal was then suspended to 3% (w/v) in PBS dextran and allowed to stand overnight, washed once again in PBS dextran and resuspended to 3% (w/v) in PBS dextran and stored at 4° C. Immediately before use in the assay, the dextran-coated activated charcoal was diluted 10-fold in DULBECCO's PBS and 1 ml was added to each assay tube. […] The supernatant fluid was decanted into 9 ml of AQUASOL-2 scintillation fluid and radioactivity counted in a beta-counter. Each assay contains charcoal free controls, to which 1 ml PBS was added, for determination of total counts (BO), and antibody free controls for determination of non-specific binding. Percent specific binding was determined by subtracting the value for non-specific binding from the value of total antiserum binding and then dividing by the total radioactivity added.
The antiserum was diluted in PET/GEL buffer (1:12,000 final dilution in the 200 μl assay volume) as described above so that it binds 20-30% of the total radioactivity added. The same diluted stock was then used for all assay tubes with-in the same assay. […] The assay was set up on a competition basis. The unlabeled reactivation product competed with the tritiated reactivation product for binding to the antibody R674. […]

## NC(N)=O [Urea]
  effect on binding to antibody R674: without effect

## N=C(N)NCCC[C@H](N)C(=O)O [arginine]
  effect on binding to antibody R674: without effect
